{"source": "patent US20230391871A1", "about": "“MONOAMINE OXIDASE BLOCKADE THERAPY FOR TREATING CANCER THROUGH REGULATING TUMOR ASSOCIATED MACROPHAGES (TAMS)” (THE REGENTS OF THE UNIVERSITY OF CALIFORNIA, priority 2020, published 2023)", "key": {"MC38 colon cancer": {"system": "MC38 colon cancer", "experimental": "(a) Experimental design. Wildtype BMDMs were stimulated with IL-4/IL-13 with or without MAOI treatment. MAOIs (monoamine oxidase inhibitors) studied were phenelzine (Phe: 20 μM), clorgyline (Clo: 20 μM), moclobemide (Moc: 200 μM), and pirlindole (Pir: 20 μM). NT, no MAOI treatment. (b) FACS analyses of ROS levels in BMDMs. (c) FACS analyses of CD206 expression on BMDMs. (d,e) QPCR analyses of Chi313 (d) and Arg1 (e) mRNA expression in BMDMs. f-j, Studying the TAM-related cancer immunotherapy potential of MAOI treatment in a B16-OVA melanoma syngeneic mouse tumour model (n=7-8). (f) Experimental design. B6 wildtype mice were treated with clodronate liposomes (Clod) to serve as TAM-depleted experimental mice, or treated with vehicle liposomes (Veh) to serve as TAM-intact control mice. Phe, phenelzine treatment: NT, no phenelzine treatment. (g) Tumour growth. (h) Tumour volume at day 18. (i) FACS analyses of CD206 expression on TAMs of TAM-intact experimental mice. (j) FACS analyses of intracellular Granzyme B production in tumour-infiltrating CD8^+ T cells of all experimental mice. k-o, Studying the cancer therapy potential of MAOI treatment in combination with anti-PD-1 treatment in the B16-OVA melanoma and MC38 colon cancer syngeneic mouse tumour models (n=5). (k) Experimental design. […]\nTumour-bearing mice treated with vehicle liposomes (Veh) were included as a control. […] FACS quantifications of TAMs (gated as CD45.2^+CD11b^+Ly6G^−Ly6C^−/lowF4/80^+ cells of total TIIs) are presented (n=7-8). b-f, Studying B16-OVA and MC38 tumour growth in B6 wildtype mice with or without phenelzine treatment (Phe or NT). […]\nB16-OVA melanoma cells (1×10^6 per animal) or MC38 colon cancer cells (5×10^5 per animal) were subcutaneously (s.c.) injected into experimental mice to form solid tumours. […] During an experiment, tumour growth was monitored twice per week by measuring tumour size using a Fisherbrand™ Traceable™ digital caliper (Thermo Fisher Scientific): tumour volumes were calculated by formula 1/2×L×W^2."}, "B16-OVA melanoma": {"system": "B16-OVA melanoma", "test": "B16-OVA melanoma syngeneic mouse tumour model", "assay_type": "in vivo", "experimental": "(§1) (a) Experimental design. Wildtype BMDMs were stimulated with IL-4/IL-13 with or without MAOI treatment. MAOIs (monoamine oxidase inhibitors) studied were phenelzine (Phe: 20 μM), clorgyline (Clo: 20 μM), moclobemide (Moc: 200 μM), and pirlindole (Pir: 20 μM). NT, no MAOI treatment. (b) FACS analyses of ROS levels in BMDMs. (c) FACS analyses of CD206 expression on BMDMs. (d,e) QPCR analyses of Chi313 (d) and Arg1 (e) mRNA expression in BMDMs. f-j, Studying the TAM-related cancer immunotherapy potential of MAOI treatment in a B16-OVA melanoma syngeneic mouse tumour model (n=7-8). (f) Experimental design. B6 wildtype mice were treated with clodronate liposomes (Clod) to serve as TAM-depleted experimental mice, or treated with vehicle liposomes (Veh) to serve as TAM-intact control mice. Phe, phenelzine treatment: NT, no phenelzine treatment. (g) Tumour growth. (h) Tumour volume at day 18. (i) FACS analyses of CD206 expression on TAMs of TAM-intact experimental mice. (j) FACS analyses of intracellular Granzyme B production in tumour-infiltrating CD8^+ T cells of all experimental mice. k-o, Studying the cancer therapy potential of MAOI treatment in combination with anti-PD-1 treatment in the B16-OVA melanoma and MC38 colon cancer syngeneic mouse tumour models (n=5). (k) Experimental design. Tumour-bearing mice were treated with anti-PD-1 antibody (aPD-1) or isotype control (Iso), together with or without phenelzine (Phe) treatment. NT, no Phe treatment. (l) B16-OVA tumour growth. (m) B16-OVA tumour volume at day 18. (n) MC38 tumour growth. (o) MC38 tumour volume at day 27. Representative of 3 experiments. All data are presented as the mean±SEM. ns, not significant, *P<0.05, **P<0.01, and ***P<0.001, by I-way ANOVA (b-e, h, j, m, o) or by Student's t test (i).\nTumour-bearing mice treated with vehicle liposomes (Veh) were included as a control. The experimental design is shown in main FIG. 5F. FACS quantifications of TAMs (gated as CD45.2^+CD11b^+Ly6G^−Ly6C^−/lowF4/80^+ cells of total TIIs) are presented (n=7-8). b-f, Studying B16-OVA and MC38 tumour growth in B6 wildtype mice with or without phenelzine treatment (Phe or NT). (b) Experimental design. (c) B16-OVA tumour growth (n=10). (d) B16-OVA tumour volume at day 18. (e) MC38 tumour growth (n=6). (f) MC38 tumour volume at day 27. g-k, Studying B16-OVA and MC38 tumour growth in NSG mice with or without phenelzine treatment (Phe or NT: n=5). (g) Experimental design. (h) B16-OVA tumour growth. (i) B16-OVA tumour volume at day 18. (j) MC38 tumour growth. (k) MC38 tumour volume at day 21. Representative of 2 (a-f) and 4 (g-k) experiments.\nB16-OVA melanoma cells (1×10^6 per animal) or MC38 colon cancer cells (5×10^5 per animal) were subcutaneously (s.c.) injected into experimental mice to form solid tumours. In some experiments, mice received intraperitoneal (i.p.) injection of phenelzine (30 mg/kg/day) to block MAO-A activity. In some experiments, mice received i.p. injection of clodronate liposomes (200 μl/animal, twice per week) to deplete TAMs: mice received i.p. injection of vehicle liposomes ([…], twice per week) were included as controls. In some experiments, mice received i.p. injection of anti-mouse PD-1 antibodies (300 μg/animal, twice per week) to block PD-1: mice received i.p. injection of isotype antibodies were included as controls. During an experiment, tumour growth was monitored twice per week by measuring tumour size using a Fisherbrand™ Traceable™ digital caliper (Thermo Fisher Scientific): tumour volumes were calculated by formula 1/2×L×W^2."}, "[1]": {"system": "wildtype BMDMs (bone marrow-derived macrophages)", "test": "In vitro WT BMDM IL-4/IL-13-induced polarization culture with MAOI treatment", "assay_type": "cell-based, mouse", "conditions": "IL-4/IL-13-stimulated WT BMDMs, 24 h", "experimental": "as §1\nTo generate BMDMs, BM cells were collected from femurs and tibias of Maoa WT mice and Maoa KO mice, and were cultured in C10 medium containing with 20% of L929-conditional medium in a 10-cm dish (2×10^6 cells per ml: 12 ml per dish) for 6 days. At day 6, the resulting BMDMs were collected and reseeded in a 6-well plate (1×10^6 cells per ml: 2 ml per well) in C10 medium for 24 hours, in the presence or absence of recombinant murine IL-4 (10 ng/ml) (Peprotech, 200-04) and IL-13 (10 ng/ml) (Peprotech, 200-13) to induce BMDM immunosuppressive polarization.\nIn some experiments, MAOIs were added to the Maoa WT BMDM polarization culture 30 minutes prior to adding recombinant murine IL-4 and IL-13, to block MAO-A activity during BMDM polarization. MAOIs studied were phenelzine (Phe, 20 μM) (Sigma-Aldrich), clorgyline (Clo, 20 μM) (Sigma-Aldrich), moclobemide (Moc, 200 μM) (Sigma-Aldrich), and pirlindole (Pir, 20 μM) (R&D Systems). At 24 hours after IL-4/IL-13 stimulation, BMDMs were collected for analysis.\nCells were stained with surface marker antibodies, washed with PBS, then resuspended in pre-warmed PBS (1×10^6 cells/ml/tube) containing 1 μM CM-H2DCFDA (Thermo Fisher Scientific, C6827). After 15 minutes incubation at room temperature, cells were immediately washed with cold PBS followed by flow cytometry analysis. ROS levels were measured by oxidation of the CM-H2DCFDA probes that can be read out as the fluorescence intensity at the FITC/488 channel of a flow cytometer. Single cell RNA sequencing (scRNAseq) scRNASeq was used to analyze the gene expression profiles of TIIs. B16-OVA tumours were harvested from Maoa WT and Maoa KO mice to prepare TII suspensions (10 tumours were combined for each group). TII suspensions were then sorted using a FACSAria II flow cytometer to purify immune cells (gated as DAPI-CD45.2^+ cells). Sorted TIIs were immediately delivered to the Technology Center for Genomics & Bioinformatics (TCGB) facility at UCLA for library construction and sequencing."}, "[2]": {"conditions": "NSG mice, phenelzine vs no treatment"}}, "note": "Read-outs that look alike come from different tables or passages of the source."}
{"smiles": "NNCCc1ccccc1", "note": "[phenelzine]", "values": [{"measurement": "progression of pre-established MC38 solid tumours", "setting": "MC38 colon cancer; B6 wildtype mice, phenelzine vs no treatment (FIG. 11e,f)", "value": "effectively suppressed"}, {"measurement": "growth of MC38 tumours in immunodeficient NSG mice", "setting": "MC38 colon cancer; [2]", "value": "did not suppress"}, {"measurement": "progression of pre-established MC38 solid tumours", "setting": "MC38 colon cancer; combination study with anti-PD-1 antibody or isotype control (FIG. 5n,o), level comparable to anti-PD-1 alone", "value": "significantly suppressed"}, {"measurement": "progression of pre-established B16-OVA solid tumours", "setting": "B16-OVA melanoma; B6 wildtype mice, phenelzine vs no treatment (FIG. 11b-d)", "value": "effectively suppressed"}, {"measurement": "growth of B16-OVA tumours in immunodeficient NSG mice", "setting": "B16-OVA melanoma; [2]", "value": "did not suppress"}, {"measurement": "CD206 expression on TAMs (FACS)", "setting": "B16-OVA melanoma; TAMs from phenelzine-treated TAM-intact B16-OVA tumour-bearing mice", "value": "decreased expression"}, {"measurement": "progression of pre-established B16-OVA solid tumours", "setting": "B16-OVA melanoma; combination study with anti-PD-1 antibody or isotype control (FIG. 5k-m), level comparable to anti-PD-1 alone", "value": "significantly suppressed"}, {"measurement": "Granzyme B production in tumour-infiltrating CD8+ T cells (FACS)", "setting": "B16-OVA melanoma; phenelzine-treated B16-OVA tumour-bearing mice", "value": "increased production"}, {"measurement": "B16-OVA tumour growth", "setting": "B16-OVA melanoma; tumour prevention model, B6 wildtype mice, TAM-intact, phenelzine 30 mg/kg/day i.p.", "value": "effectively suppressed"}, {"measurement": "B16-OVA tumour growth in TAM-depleted mice", "setting": "B16-OVA melanoma; tumour prevention model, B6 wildtype mice, TAMs depleted with clodronate liposomes, phenelzine vs no phenelzine", "value": "No tumour growth difference"}, {"measurement": "ROS levels in BMDMs (FACS)", "setting": "[1]; MAOI 20 μM added 30 min before cytokines", "value": "efficiently reduced"}, {"measurement": "Arg1 mRNA expression in BMDMs (QPCR)", "setting": "[1]; MAOI 20 μM", "value": "decreased expression"}, {"measurement": "CD206 expression on BMDMs (FACS)", "setting": "[1]; MAOI 20 μM", "value": "decreased expression"}, {"measurement": "Chi313 mRNA expression in BMDMs (QPCR)", "setting": "[1]; MAOI 20 μM", "value": "decreased expression"}, {"measurement": "immunosuppressive polarization of BMDMs", "setting": "[1]; MAOI 20 μM", "value": "suppressed"}]}
